Laboratory results as given in PubChem BioAssay (NCI).
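Cells were grown in 96-well plates and exposed to each compound for 48 hours at five concentrations; endpoints were interpolated linearly between bracketing concentrations, or set to the highest concentration if not reached. The concentration for full growth arrest is given as TGI.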

How the values were obtained:
Assay in all cases: NCI-60 cell line screen, 48 h
MCF7 breast = test system: MCF7 breast
SN12C renal = test system: SN12C renal
HT29 colon = test system: HT29 colon
A549 NSCLC = test system: A549 NSCLC
SF-268 CNS = test system: SF-268 CNS
MALME-3M melanoma = test system: MALME-3M melanoma
HOP-62 NSCLC = test system: HOP-62 NSCLC
786-0 renal = test system: 786-0 renal
NCI-H460 lung = test system: NCI-H460 lung
HCT-15 colon = test system: HCT-15 colon
SK-MEL-5 melanoma = test system: SK-MEL-5 melanoma
HCT-116 colon = test system: HCT-116 colon
LOX IMVI melanoma = test system: LOX IMVI melanoma
OVCAR-4 ovarian = test system: OVCAR-4 ovarian
IGROV1 ovarian = test system: IGROV1 ovarian
SW-620 colon = test system: SW-620 colon
TK-10 renal = test system: TK-10 renal
OVCAR-3 ovarian = test system: OVCAR-3 ovarian
T-47D breast = test system: T-47D breast
BT-549 breast = test system: BT-549 breast
PC-3 prostate = test system: PC-3 prostate
UACC-257 melanoma = test system: UACC-257 melanoma
SF-295 CNS = test system: SF-295 CNS
EKVX NSCLC = test system: EKVX NSCLC
CAKI-1 renal = test system: CAKI-1 renal
SK-OV-3 ovarian = test system: SK-OV-3 ovarian
OVCAR-5 ovarian = test system: OVCAR-5 ovarian
COLO 205 colon = test system: COLO 205 colon
HL-60(TB) leukemia = test system: HL-60(TB) leukemia
M14 melanoma = test system: M14 melanoma
SK-MEL-2 melanoma = test system: SK-MEL-2 melanoma
U251 CNS = test system: U251 CNS
HCC-2998 colon = test system: HCC-2998 colon
MOLT-4 leukemia = test system: MOLT-4 leukemia
NCI/ADR-RES ovarian = test system: NCI/ADR-RES ovarian
NCI-H23 lung = test system: NCI-H23 lung
SNB-19 CNS = test system: SNB-19 CNS
MDA-MB-231 breast = test system: MDA-MB-231 breast
SNB-75 CNS = test system: SNB-75 CNS
MDA-MB-435 = test system: MDA-MB-435
SR leukemia = test system: SR leukemia
DU-145 prostate = test system: DU-145 prostate
UACC-62 melanoma = test system: UACC-62 melanoma
KM12 colon = test system: KM12 colon
NCI-H226 lung = test system: NCI-H226 lung
MDA-N = test system: MDA-N
RXF 393 renal = test system: RXF 393 renal
ACHN renal = test system: ACHN renal
K-562 leukemia = test system: K-562 leukemia
A498 renal = test system: A498 renal
RPMI-8226 leukemia = test system: RPMI-8226 leukemia
NCI-H522 lung = test system: NCI-H522 lung
OVCAR-8 ovarian = test system: OVCAR-8 ovarian
SK-MEL-28 melanoma = test system: SK-MEL-28 melanoma
UO-31 renal = test system: UO-31 renal
SF-539 CNS = test system: SF-539 CNS
HOP-92 NSCLC = test system: HOP-92 NSCLC
CCRF-CEM leukemia = test system: CCRF-CEM leukemia

Work on `O=C(/C=C/c1ccc(OCc2ccccc2)c(OCc2ccccc2)c1)OCc1ccccc1` yielded a TGI (MCF7 breast) of over 100 µM, a TGI (SN12C renal) of over 100 µM and a TGI (HT29 colon) of over 100 µM. The TGI (A549 NSCLC) was over 100 µM, the TGI (SF-268 CNS) was over 100 µM and the TGI (MALME-3M melanoma) was over 100 µM. It also gave a TGI (HOP-62 NSCLC) of over 100 µM, a TGI (786-0 renal) of over 100 µM and a TGI (NCI-H460 lung) of over 100 µM. It also gave a TGI (HCT-15 colon) of over 100 µM, a TGI (SK-MEL-5 melanoma) of over 100 µM and a TGI (HCT-116 colon) of over 100 µM. For the same compound, the TGI (LOX IMVI melanoma) was over 100 µM, the TGI (OVCAR-4 ovarian) was over 100 µM and the TGI (IGROV1 ovarian) was over 100 µM. The TGI (SW-620 colon) was over 100 µM, the TGI (TK-10 renal) was over 100 µM and the TGI (OVCAR-3 ovarian) was over 100 µM. It also gave a TGI (T-47D breast) of over 100 µM, a TGI (BT-549 breast) of over 100 µM and a TGI (PC-3 prostate) of over 100 µM. The TGI (UACC-257 melanoma) was over 100 µM, the TGI (SF-295 CNS) was over 100 µM and the TGI (EKVX NSCLC) was over 100 µM. For the same compound, the TGI (CAKI-1 renal) was over 100 µM, the TGI (SK-OV-3 ovarian) was over 100 µM and the TGI (OVCAR-5 ovarian) was over 100 µM. For the same compound, the TGI (COLO 205 colon) was over 100 µM, the TGI (HL-60(TB) leukemia) was over 100 µM and the TGI (M14 melanoma) was over 100 µM. It also gave a TGI (SK-MEL-2 melanoma) of over 100 µM, a TGI (U251 CNS) of over 100 µM and a TGI (HCC-2998 colon) of over 100 µM. The TGI (MOLT-4 leukemia) was over 100 µM, the TGI (NCI/ADR-RES ovarian) was over 100 µM and the TGI (NCI-H23 lung) was over 100 µM. The TGI (SNB-19 CNS) was over 100 µM, the TGI (MDA-MB-231 breast) was over 100 µM and the TGI (SNB-75 CNS) was over 100 µM. For the same compound, the TGI (MDA-MB-435) was over 100 µM, the TGI (SR leukemia) was over 100 µM and the TGI (DU-145 prostate) was over 100 µM. For the same compound, the TGI (UACC-62 melanoma) was over 100 µM, the TGI (KM12 colon) was over 100 µM and the TGI (NCI-H226 lung) was over 100 µM. For the same compound, the TGI (MDA-N) was over 100 µM, the TGI (RXF 393 renal) was over 100 µM and the TGI (ACHN renal) was over 100 µM. The TGI (K-562 leukemia) was over 100 µM, the TGI (A498 renal) was over 100 µM and the TGI (RPMI-8226 leukemia) was over 100 µM. For the same compound, the TGI (NCI-H522 lung) was over 100 µM, the TGI (OVCAR-8 ovarian) was over 100 µM and the TGI (SK-MEL-28 melanoma) was over 100 µM. For the same compound, the TGI (UO-31 renal) was over 100 µM, the TGI (SF-539 CNS) was over 100 µM and the TGI (HOP-92 NSCLC) was over 100 µM.

`O=c1[nH]cnc2c1cnn2Cc1cn(COCC(O)CO)nn1` (stereo not given) was tested, and the TGI (MCF7 breast) was over 100 µM, the TGI (SN12C renal) was over 100 µM and the TGI (HT29 colon) was over 100 µM. The TGI (A549 NSCLC) was over 100 µM, the TGI (HOP-62 NSCLC) was over 100 µM and the TGI (786-0 renal) was over 100 µM. The TGI (HCT-15 colon) was over 100 µM, the TGI (SK-MEL-5 melanoma) was over 100 µM and the TGI (HCT-116 colon) was over 100 µM. The TGI (LOX IMVI melanoma) was over 100 µM, the TGI (OVCAR-4 ovarian) was over 100 µM and the TGI (IGROV1 ovarian) was over 100 µM. It also gave a TGI (SW-620 colon) of over 100 µM, a TGI (TK-10 renal) of over 100 µM and a TGI (OVCAR-3 ovarian) of over 100 µM. For the same compound, the TGI (T-47D breast) was over 100 µM, the TGI (BT-549 breast) was over 100 µM and the TGI (PC-3 prostate) was over 100 µM. For the same compound, the TGI (UACC-257 melanoma) was over 100 µM, the TGI (SF-295 CNS) was over 100 µM and the TGI (EKVX NSCLC) was over 100 µM. It also gave a TGI (CAKI-1 renal) of over 100 µM, a TGI (SK-OV-3 ovarian) of over 100 µM and a TGI (OVCAR-5 ovarian) of over 100 µM. The TGI (COLO 205 colon) was over 100 µM, the TGI (HL-60(TB) leukemia) was over 100 µM and the TGI (M14 melanoma) was over 100 µM. The TGI (SK-MEL-2 melanoma) was over 100 µM, the TGI (U251 CNS) was over 100 µM and the TGI (HCC-2998 colon) was over 100 µM. For the same compound, the TGI (MOLT-4 leukemia) was over 100 µM, the TGI (NCI/ADR-RES ovarian) was over 100 µM and the TGI (NCI-H23 lung) was over 100 µM. The TGI (SNB-19 CNS) was over 100 µM, the TGI (MDA-MB-231 breast) was over 100 µM and the TGI (CCRF-CEM leukemia) was over 100 µM. It also gave a TGI (MDA-MB-435) of over 100 µM, a TGI (SR leukemia) of over 100 µM and a TGI (DU-145 prostate) of over 100 µM. The TGI (UACC-62 melanoma) was over 100 µM, the TGI (KM12 colon) was over 100 µM and the TGI (NCI-H226 lung) was over 100 µM. The TGI (MDA-N) was over 100 µM, the TGI (ACHN renal) was over 100 µM and the TGI (K-562 leukemia) was over 100 µM. The TGI (A498 renal) was over 100 µM, the TGI (RPMI-8226 leukemia) was over 100 µM and the TGI (NCI-H522 lung) was 62.7 µM. The TGI (OVCAR-8 ovarian) was over 100 µM, the TGI (SK-MEL-28 melanoma) was over 100 µM and the TGI (UO-31 renal) was over 100 µM. It also gave a TGI (SF-539 CNS) of over 100 µM and a TGI (HOP-92 NSCLC) of over 100 µM.
